Assay results reported in the supplement of paper PMC12490022.
± gives the uncertainty stated by the source.

test system: ozone; assay: apparent second-order rate constant for reaction with ozone (kapp,O3) (M-1 s-1); higher = faster oxidation by ozone; conditions: pH 7; temperature: 22 C; OH radical scavenger: tBuOH 80 mM; phosphate 4 mM
Procedure, shortened: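 The apparent second-order rate constant for reaction with ozone is a mean (± SD) from multicompound competition kinetics across qualifying competitors. Mixtures of target and competitors, each at 10 μg L–1 before ozone addition, were prepared in 4 mM phosphate buffer at pH 7 with 80 mM tert-butanol and dosed with ozone solution at compound:O3 molar ratios of 0.0025–100 and 22 ± 1 °C, in triplicate on three days. HPLC-HRMS/MS peak-area abatement in the 10–90% range was regressed against competitors of known constant, and a competitor qualified only with ≥10 points, R2 >0.9 and a slope of 0.1–10.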

Structure (SMILES)	apparent second-order rate constant
Cn1cnc2c1c(=O)[nH]c(=O)n2C [Theobromine]	1200 ± 65
Cn1c(=O)c2[nH]cnc2n(C)c1=O [Theophylline]	885000 ± 78000
Cc1ccc(C(=O)C(C)CN2CCCCC2)cc1 (stereo not given) [Tolperisone]	17400 ± 1700
CC(C)NC(=O)NS(=O)(=O)c1cnccc1Nc1cccc(C(=O)O)c1 [Torasemide carboxylic acid]	214 ± 10
Cc1cccc(Nc2ccncc2S(=O)(=O)NC(=O)NC(C)C)c1 [Torasemide]	2990 ± 260
O=c1n(CCCN2CCN(c3cccc(Cl)c3)CC2)nc2ccccn12 [Trazodone]	1.31e+07 ± 1.6e+06
CC(CN1c2ccccc2CCc2ccccc21)C[N+](C)(C)[O-] (stereo not given) [Trimipramine-N-oxide]	4.8e+06 ± 300000
CC(CN(C)C)CN1c2ccccc2CCc2ccccc21 (stereo not given) [Trimipramine]	2e+06 ± 400000
COc1ccc(C(C[N+](C)(C)[O-])C2(O)CCCCC2)cc1 (stereo not given) [Venlafaxine-N-oxide]	168 ± 8.7
COc1ccc(C(CN(C)C)C2(O)CCCCC2)cc1 (stereo not given) [Venlafaxine]	3440 ± 260
COc1ccc(CCN(C)CCCC(C#N)(c2ccc(OC)c(OC)c2)C(C)C)cc1OC (stereo not given) [Verapamil]	64000 ± 14000
Cc1ccc2nc(-c3ccc(C(=O)O)cc3)c(CC(=O)N(C)C)n2c1 [Zolpidem carboxylic acid]	6.3e+06 ± 400000
Cc1ccc(-c2nc3ccc(C)cn3c2CC(=O)N(C)C)cc1 [Zolpidem]	1.28e+07 ± 900000
CC(C)c1c(C(=O)Nc2ccccc2O)c(-c2ccccc2)c(-c2ccc(F)cc2)n1CCC(O)CC(O)CC(=O)O (stereo not given) [ortho-Hydroxyatorvastatin]	1.8e+08 ± 4e+07
CC(C)c1c(C(=O)Nc2ccc(O)cc2)c(-c2ccccc2)c(-c2ccc(F)cc2)n1CCC(O)CC(O)CC(=O)O (stereo not given) [para-Hydroxyatorvastatin]	6.6e+07 ± 1.4e+07
